Results: patent US12187733B1, “5-(Substitutedphenyl)-7-Imino-7,8-Dihydropyrimido[4,5-d]pyrimidine-2,4(1H,3H)-dione analogues as anti-inflammatory agents” (KING FAISAL UNIVERSITY, priority 2023, dated 2025)

Experiment: Anti-inflammatory activity
Excerpt: Anti-Inflammatory Activity

| IC50 | Structure (SMILES) |
| --- | --- |
| 248 nM | [H]/N=c1\nc(-c2cccc(OCc3ccccc3)c2)c2c(=O)[nH]c(=O)[nH]c2[nH]1 [Compound 4a, 5-(3-(Benzyloxy)phenyl)-7-imino-7,8-dihydropyrimido[4,5-d]pyrimidine-2,4 (^1H,3H)-dione] |
| 90.9 nM | [H]/N=c1\nc(-c2ccc(OCc3ccccc3)cc2)c2c(=O)[nH]c(=O)[nH]c2[nH]1 [Compound 4b, 5-(4-(Benzyloxy)phenyl)-7-imino-7,8-dihydropyrimido[4,5-d]pyrimidine-2,4 (^1H,3H)-dione] |
| 218 nM | [H]/N=c1\nc(-c2ccc(OC)c(O)c2)c2c(=O)[nH]c(=O)[nH]c2[nH]1 [Compound 4c, 5-(3-Hydroxy-4-methoxyphenyl)-7-imino-7,8-dihydropyrimido[4,5-d]pyrimidine-2,4 (^1H,3H)-dione] |
| 106 nM | [H]/N=c1\nc(-c2ccc(OC)c(O)c2)c2c(=O)n(C)c(=O)n(C)c2[nH]1 [Compound 4d, 5-(3-Hydroxy-4-methoxyphenyl)-7-imino-1,3-dimethyl-7,8-dihydropyrimido[4,5-d]pyrimid-ine-2,4 (^1H,3H)-dione] |
